Results: the supplement of paper PMC11061612

Assays:
Palbociclib = compound: CC(=O)c1c(C)c2cnc(Nc3ccc(N4CCNCC4)cn3)nc2n(C2CCCC2)c1=O [Palbociclib]; details: max 10 µM
Procedure, shortened: (§1)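 After 24 hours at 37°C and 5% CO2 in 1536-well plates holding 7.5 μl of DMEM/F12 or RPMI with 10% FBS, cancer cell lines were dosed for 72 hours, with final DMSO typically 0.2%. Viability came from CellTiter-Glo 2.0 luminescence, scaled between the means of blank wells and DMSO wells. A non-linear mixed effects model fitted a two-parameter logistic curve to each dose response to give the single-agent IC50.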

Taselisib = compound: Cc1nc(-c2cn3c(n2)-c2ccc(-c4cnn(C(C)(C)C(N)=O)c4)cc2OCC3)n(C(C)C)n1 [Taselisib]; details: max 10 µM
Procedure, shortened: as §1

Prexasertib = compound: COc1cccc(OCCCN)c1-c1cc(Nc2cnc(C#N)cn2)n[nH]1 [Prexasertib]; details: max 1 µM
Procedure, shortened: as §1

AZD1390 = compound: CC(C)n1c(=O)n(C)c2cnc3cc(F)c(-c4ccc(OCCCN5CCCCC5)nc4)cc3c21 [AZD1390]; details: max 0.3 µM
Procedure, shortened: as §1

Crizotinib = compound: C[C@@H](Oc1cc(-c2cnn(C3CCNCC3)c2)cnc1N)c1c(Cl)ccc(F)c1Cl [Crizotinib]; details: max 10 µM
Procedure, shortened: as §1

Paclitaxel = compound: CC(=O)O[C@H]1C(=O)[C@@]2(C)[C@H]([C@H](OC(=O)c3ccccc3)[C@]3(O)C[C@H](OC(=O)[C@H](O)[C@@H](NC(=O)c4ccccc4)c4ccccc4)C(C)=C1C3(C)C)[C@]1(OC(C)=O)CO[C@@H]1C[C@@H]2O [Paclitaxel]; details: max 3 µM
Procedure, shortened: as §1

Alisertib = compound: COc1cc(Nc2ncc3c(n2)-c2ccc(Cl)cc2C(c2c(F)cccc2OC)=NC3)ccc1C(=O)O [Alisertib]; details: max 10 µM
Procedure, shortened: as §1

Doxorubicin = compound: COc1cccc2c1C(=O)c1c(O)c3c(c(O)c1C2=O)C[C@@](O)(C(=O)CO)C[C@@H]3O[C@H]1C[C@H](N)[C@H](O)[C@H](C)O1 [Doxorubicin]; details: max 1 µM
Procedure, shortened: as §1

Carboplatin = compound: C1CC(C1)(C(=O)[O-])C(=O)[O-].N.N.[Pt+2] [Carboplatin]; details: max 10 µM
Procedure, shortened: as §1

Venetoclax = compound: CC1(C)CCC(CN2CCN(c3ccc(C(=O)NS(=O)(=O)c4ccc(NCC5CCOCC5)c([N+](=O)[O-])c4)c(Oc4cnc5[nH]ccc5c4)c3)CC2)=C(c2ccc(Cl)cc2)C1 [Venetoclax]; details: max 1 µM
Procedure, shortened: as §1

Gemcitabine = compound: Nc1ccn([C@@H]2O[C@H](CO)[C@@H](O)C2(F)F)c(=O)n1 [Gemcitabine]; details: max 0.3 µM
Procedure, shortened: as §1

SN-38 = compound: CCc1c2c(nc3ccc(O)cc13)-c1cc3c(c(=O)n1C2)COC(=O)[C@]3(O)CC [SN-38]; details: max 0.3 µM
Procedure, shortened: as §1

SG3199 = compound: CC1=CN2[C@@H](C1)C=NC3=CC(=C(C=C3C2=O)OC)OCCCCCOC4=C(C=C5C(=C4)N=C[C@@H]6CC(=CN6C5=O)C)OC [SG3199]; details: max 0.001 µM
Procedure, shortened: as §1

Gefitinib = compound: COc1cc2ncnc(Nc3ccc(F)c(Cl)c3)c2cc1OCCCN1CCOCC1 [Gefitinib]; details: max 10 µM
Procedure, shortened: as §1

AZD6738 = compound: C[C@@H]1COCCN1C2=NC(=NC(=C2)C3(CC3)[S@](=N)(=O)C)C4=C5C=CNC5=NC=C4 [AZD6738]; details: max 10 µM
Procedure, shortened: as §1

5-Fluorouracil = compound: O=c1[nH]cc(F)c(=O)[nH]1 [5-Fluorouracil]; details: max 20 µM
Procedure, shortened: as §1

AZD5363 = compound: C1CN(CCC1(C(=O)N[C@@H](CCO)C2=CC=C(C=C2)Cl)N)C3=NC=NC4=C3C=CN4 [AZD5363]; details: max 10 µM
Procedure, shortened: as §1

AZD2811 = compound: CCN(CCO)CCCOc1ccc2c(Nc3cc(CC(=O)Nc4cccc(F)c4)[nH]n3)ncnc2c1 [AZD2811]; details: max 1 µM
Procedure, shortened: as §1

AZD1775 = compound: C=CCn1c(=O)c2cnc(Nc3ccc(N4CCN(C)CC4)cc3)nc2n1-c1cccc(C(C)(C)O)n1 [AZD1775]; details: max 3 µM
Procedure, shortened: as §1

[1] = compound: O=C(Nc1ccc2[nH]nc(-c3ccncc3)c2c1)[C@@H]1CCN(CC(=O)N2CCN(c3ccc(-c4ncccn4)cc3)CC2)C1; details: max 5 µM
Procedure, shortened: as §1

AZD4320 = compound: CN(CC[C@H](CSC1=CC=CC=C1)NC2=C(C=C(C=C2)S(=O)(=O)NC(=O)C3=CC=C(C=C3)N4CCC(CC4)[C@H](C5=CC=CC=C5C6=CC=C(C=C6)Cl)O)S(=O)(=O)C(F)(F)F)CCO [AZD4320]; details: max 1 µM
Procedure, shortened: as §1

AZD5991 = compound: Cc1c2c(nn1C)CSCc1cc(n(C)n1)CSc1cc(c3ccccc3c1)OCCCc1c(C(=O)O)n(C)c3c-2c(Cl)ccc13 [AZD5991]; details: max 1 µM
Procedure, shortened: as §1

SRA737 = compound: N#Cc1cnc(Nc2cc(NC[C@H]3CNCCO3)c(C(F)(F)F)cn2)cn1 [SRA737]; details: max 10 µM
Procedure, shortened: as §1

AZD0156 = compound: CN(C)CCCOc1ccc(-c2ccc3ncc4c(c3c2)n(C2CCOCC2)c(=O)n4C)cn1 [AZD0156]; details: max 3 µM
Procedure, shortened: as §1

Lapatinib = compound: CS(=O)(=O)CCNCc1ccc(-c2ccc3ncnc(Nc4ccc(OCc5cccc(F)c5)c(Cl)c4)c3c2)o1 [Lapatinib]; details: max 10 µM
Procedure, shortened: as §1

Etoposide = compound: COc1cc([C@@H]2c3cc4c(cc3[C@@H](O[C@@H]3O[C@@H]5CO[C@@H](C)O[C@H]5[C@H](O)[C@H]3O)[C@H]3COC(=O)[C@H]23)OCO4)cc(OC)c1O [Etoposide]; details: max 10 µM
Procedure, shortened: as §1

Selumetinib = compound: Cn1cnc2c(F)c(Nc3ccc(Br)cc3Cl)c(C(=O)NOCCO)cc21 [Selumetinib]; details: max 10 µM
Procedure, shortened: as §1

Trametinib = compound: CC(=O)Nc1cccc(-n2c(=O)n(C3CC3)c(=O)c3c(Nc4ccc(I)cc4F)n(C)c(=O)c(C)c32)c1 [Trametinib]; details: max 1 µM
Procedure, shortened: as §1

MK-2206 = compound: NC1(c2ccc(-c3nc4ccn5c(=O)[nH]nc5c4cc3-c3ccccc3)cc2)CCC1 [MK-2206]; details: max 10 µM
Procedure, shortened: as §1

AZD8186 = compound: C[C@@H](Nc1cc(F)cc(F)c1)c1cc(C(=O)N(C)C)cc2c(=O)cc(N3CCOCC3)oc12 [AZD8186]; details: max 10 µM
Procedure, shortened: as §1

Savolitinib = compound: C[C@@H](c1ccc2nccn2c1)n1nnc2ncc(-c3cnn(C)c3)nc21 [Savolitinib]; details: max 1 µM
Procedure, shortened: as §1

AZD5153 = compound: COc1nnc2ccc(N3CCC(c4ccc(OCCN5CCN(C)C(=O)[C@H]5C)cc4)CC3)nn12 [AZD5153]; details: max 1 µM
Procedure, shortened: as §1

Olaparib = compound: O=C(c1cc(Cc2n[nH]c(=O)c3ccccc23)ccc1F)N1CCN(C(=O)C2CC2)CC1 [Olaparib]; details: max 10 µM
Procedure, shortened: as §1

Dasatinib = compound: CC1=C(C(=CC=C1)Cl)NC(=O)C2=CN=C(S2)NC3=CC(=NC(=N3)C)N4CCN(CC4)CCO [Dasatinib]; details: max 2 µM
Procedure, shortened: as §1

AZD7648 = compound: Cc1cc2ncnn2cc1Nc1ncc2c(n1)n(C1CCOCC1)c(=O)n2C [AZD7648]; details: max 10 µM
Procedure, shortened: as §1

Cell Line | IC50, cell viability 72 h (Palbociclib) | IC50, cell viability 72 h (Taselisib) | IC50, cell viability 72 h (Prexasertib) | IC50, cell viability 72 h (AZD1390) | IC50, cell viability 72 h (Crizotinib) | IC50, cell viability 72 h (Paclitaxel) | IC50, cell viability 72 h (Alisertib) | IC50, cell viability 72 h (Doxorubicin) | IC50, cell viability 72 h (Carboplatin) | IC50, cell viability 72 h (Venetoclax) | IC50, cell viability 72 h (Gemcitabine) | IC50, cell viability 72 h (SN-38) | IC50, cell viability 72 h (SG3199) | IC50, cell viability 72 h (Gefitinib) | IC50, cell viability 72 h (AZD6738) | IC50, cell viability 72 h (5-Fluorouracil) | IC50, cell viability 72 h (AZD5363) | IC50, cell viability 72 h (AZD2811) | IC50, cell viability 72 h (AZD1775) | IC50, cell viability 72 h [1] | IC50, cell viability 72 h (AZD4320) | IC50, cell viability 72 h (AZD5991) | IC50, cell viability 72 h (SRA737) | IC50, cell viability 72 h (AZD0156) | IC50, cell viability 72 h (Lapatinib) | IC50, cell viability 72 h (Etoposide) | IC50, cell viability 72 h (Selumetinib) | IC50, cell viability 72 h (Trametinib) | IC50, cell viability 72 h (MK-2206) | IC50, cell viability 72 h (AZD8186) | IC50, cell viability 72 h (Savolitinib) | IC50, cell viability 72 h (AZD5153) | IC50, cell viability 72 h (Olaparib) | IC50, cell viability 72 h (Dasatinib) | IC50, cell viability 72 h (AZD7648)
LB831-BLC (Bladder Carcinoma) | > 10000 nM | 5820 nM | > 1000 nM | > 300 nM | > 10000 nM | 69.1 nM | > 10000 nM | 821 nM | > 10000 nM | > 1000 nM | 202 nM | 45.8 nM | > 1 nM | > 10000 nM | > 10000 nM | > 20000 nM | > 10000 nM | > 1000 nM | 2140 nM | > 5000 nM | > 1000 nM | > 1000 nM | > 10000 nM | > 3000 nM | > 10000 nM | > 10000 nM | > 10000 nM | > 1000 nM | > 10000 nM | > 10000 nM | > 1000 nM | > 1000 nM | > 10000 nM | > 2000 nM | > 10000 nM
LS-180 (Colorectal Carcinoma) | 9720 nM | 2160 nM | 103 nM | > 300 nM | > 10000 nM | 30.5 nM | 7410 nM | 168 nM | > 10000 nM | > 1000 nM | 11.8 nM | 21.1 nM | > 1 nM | > 10000 nM | 3420 nM | > 20000 nM | > 10000 nM | > 1000 nM | 2030 nM | 2850 nM | > 1000 nM | > 1000 nM | > 10000 nM | > 3000 nM | > 10000 nM | 1920 nM | 2680 nM | 74.4 nM | > 10000 nM | > 10000 nM | > 1000 nM | 673 nM | > 10000 nM | > 2000 nM | > 10000 nM
ME-1 (Acute Myeloid Leukemia) | > 10000 nM | > 10000 nM | 315 nM | > 300 nM | > 10000 nM | > 3000 nM | > 10000 nM | > 1000 nM | > 10000 nM | 7.88 nM | > 300 nM | > 300 nM | > 1 nM | > 10000 nM | > 10000 nM | > 20000 nM | > 10000 nM | > 1000 nM | 1260 nM | > 5000 nM | 22.7 nM | 694 nM | > 10000 nM | > 3000 nM | > 10000 nM | > 10000 nM | > 10000 nM | > 1000 nM | > 10000 nM | > 10000 nM | > 1000 nM | > 1000 nM | > 10000 nM | > 2000 nM | > 10000 nM
NB10 (Neuroblastoma) | > 10000 nM | 6730 nM | 92 nM | > 300 nM | 3740 nM | 273 nM | 56.6 nM | 528 nM | > 10000 nM | > 1000 nM | 87.1 nM | 6.51 nM | > 1 nM | > 10000 nM | 5830 nM | 18400 nM | > 10000 nM | > 1000 nM | 892 nM | 3880 nM | > 1000 nM | > 1000 nM | > 10000 nM | > 3000 nM | > 10000 nM | 1950 nM | > 10000 nM | 328 nM | > 10000 nM | > 10000 nM | > 1000 nM | 664 nM | > 10000 nM | > 2000 nM | > 10000 nM
NCI-H82 (Small Cell Lung Carcinoma) | > 10000 nM | > 10000 nM | 18.2 nM | > 300 nM | 3570 nM | 5.46 nM | 1090 nM | 254 nM | > 10000 nM | > 1000 nM | 32.8 nM | 22.7 nM | > 1 nM | > 10000 nM | 2110 nM | 11800 nM | 1360 nM | 844 nM | 622 nM | > 5000 nM | > 1000 nM | 227 nM | 5800 nM | > 3000 nM | > 10000 nM | 2450 nM | > 10000 nM | > 1000 nM | 2690 nM | > 10000 nM | > 1000 nM | 931 nM | > 10000 nM | > 2000 nM | > 10000 nM
